Patent US20250084095A1, “Aminopyrimidine Derivatives as Cyclin-Dependent Kinase Inhibitors” (Accutar Biotechnology Inc., priority 2023, published 2025)

What was measured:
[1] = test system: Phospho-Rb (Ser807/811) in MCF7 cells; assay: Phospho-Rb expression inhibition in MCF7 cells quantified by in cell Western; type: cell-based, human; settings: Homo sapiens, MCF7, 24 h, 24 hours, in cell Western, read-out: MCF7 pRb IC50
Method: MCF7 cells were obtained from American Type Culture Collection (ATCC, HTB-22). MCF7 cells were plated in 96-well plates (VWR #10062-900, or Coming #3904) in 90 μL culture medium at a density of 20,000 cells/well in the DMEM growth medium containing 10%/FBS and 1% Penicillin Streptomycin, and then incubated at 37° C. overnight. The following day, the test compound was administered to the cells by using 1000× compound stock solution prepared in DMSO at various concentrations. 1000× compound stock solution was first diluted in culturing medium to 10×, then 10 μL compound medium was added to each well in the cell plates. After administration of the compound, the cells were then incubated at 37° C. for 24 h. Upon completion, the cells were washed with PBS briefly. 150 μL/well of 4% formaldehyde was added and the plates were incubated at room temperature for 20 min. The cells were washed with PBS briefly, and permeabilized with 150 µL/well of ice cold 100% methanol for 10 min. The cells were washed with PBS briefly and blocked with 100 µL/well LI-COR blocking buffer for 1 h at room temperature with gentle shaking. The cells were incubated overnight at 4° C. with 50 μL primary antibody rabbit anti-Phospho-Rb (Ser807/811) (1: 500, Cell Signaling, #8516) and anti-Rb (1:200, Santa Cruz, sc-73598) diluted in Intercept Blocking Buffer (LI-COR, #927-60001) containing 0.1% Tween 20. The next day, the cells were washed with 200 μL PBS containing 0.1% Tween 20, 5×5 mins at room temperature with gentle shaking, and incubated with 50 μL secondary antibody, IRDye® 800CW Goat anti-Rabbit IgG (1:1000, LI-COR, #926-32211) and FRDye® 680RD Goat anti-Mouse IgG (1:1000, LI-COR, #926-68070), in LI-COR […] blocking buffer with 0.2% Tween 20 for 1 h at room temperature with gentle shaking. The cells were washed with 200 μL PBS containing 0.1% Tween 20, 5×5 min at room temperature with gentle shaking. The cells were washed with PBS for 5 mins. 100 μL fresh PBS was added to each well and the plates were imaged on a LI-COR Odyssey CLX plate reader.
MCF7 cells were obtained from American Type Culture Collection (ATCC, HTB-22). SW1573-CDK6 KO and SW1573-CDK4 KO cells were generated by the CRISPR-Cas9 technology. All cells were plated in 96-well plates (VWR #10062-900, or Corning #3904) in 90 uL culture medium at a density of 20,000 cells/well in the respective growth medium containing 10% FBS and 1% Penicillin Streptomycin, and then incubated at 37° C. overnight. The following day, the test compound was administered to the cells by using 1000× compound stock solution prepared in DMSO at various concentrations. 1000× compound stock solution was first diluted in culturing medium to 10×, then 10 uL compound medium was added to each well in the cell plates. After administration of the compound, the cells were then incubated at 37° C. for 24 hours. Upon completion, the cells were washed with PBS briefly. 150 uL/well of 4% formaldehyde was added and the plates were incubated at room temperature for 20 mins. The cells were washed with PBS briefly, and permeabilized with 150 uL/well of ice cold 100% methanol for 10 mins. The cells were washed with PBS briefly and blocked with 100 uL/well LI-COR blocking buffer for 1 hr at room temperature with gentle shaking. The cells were incubated overnight at 4° C. with 50 uL primary antibody rabbit anti-Phospho-Rb (Ser807/811) (1: 500, Cell Signaling, #8516) and anti-Rb (1:200, Santa Cruz, sc-73598) diluted in Intercept Blocking Buffer (LI-COR, #927-60001) containing 0.1% Tween 20. The next day, the cells were washed with 200 uL PBS containing 0.1% Tween 20, 5×5 mins at room temperature with gentle shaking, and incubated with 50 uL secondary antibody, IRDye® 800CW Goat anti-Rabbit IgG (1:1000, LI-COR, #926-32211) and IRDye®680RD Goat anti-Mouse IgG (1:1000, LI-COR, #926-68070), in LI-COR blocking buffer with 0.2% Tween 20 for 1 hr at room temperature with gentle shaking. […]

[2] = test system: 22RV1 cells; assay: Cell growth inhibition of 22RV1 cells (CellTiter-Glo); type: cell-based; settings: Homo sapiens, 22Rv1, 120 h, 5 days, CellTiter-Glo, read-out: 22RV1 Cell Growh GI50
Method: For cell growth assay, 22RV1 (ATCC, CRL-2505) cells were seeded in 96-well plates at 1000 cells/well in 90 μl of RPMI1640 growth medium containing 20% FBS and 1% Penicillin Streptomycin, and then incubated at 37° C. overnight. The following day, the test compound was administered to the cells by using 1000× compound stock solution prepared in DMSO at various concentrations. 1000× compound stock solution was first diluted in culturing medium to 10×, then 10 uL compound medium was added to each well in the cell plates. After administration of the compound, the cells were then incubated at 37° C. for 5 days. Upon completion, the plates were equilibrated at room temperature for approximately 10 min. 100 μl of CellTiter-Glo® Reagent (Promega) was added to each well. The plates were then incubated at room temperature for 10 min and luminescence was recorded by EnSpire plate reader (PerkinElmer).
22RV1 cells were obtained from American Type Culture Collection (ATCC, CRL-2505). 22RV1 cells were seeded in 96-well plates at 1000 cells/well in 90 μL of RPMI1640 growth medium containing 10% FBS and 1% Penicillin Streptomycin, and then incubated at 37° C. overnight. The following day, the test compound was administered to the cells by using 1000× compound stock solution prepared in DMSO at various concentrations. […], then 10 uL compound medium was added to each well in the cell plates. After administration of the compound, the cells were then incubated at […] for 5 days. Upon completion, the plates were equilibrated at room temperature for approximately 10 minutes. 100 μL of CellTiter-Glo® Reagent (Promega) was added to each well. The plates were then incubated at room temperature for 10 minutes and luminescence was recorded by EnSpire plate reader (PerkinElmer).

IC50 [1] [nM] | GI50 [2] [nM] | SMILES
40 to 150 | ≤ 120 | CC(C)n1c(C(C)(C)O)c(C#N)c2c(F)cc(-c3nc(N[C@@H]4C[C@H]5CO[C@H](O5)[C@H]4O)ncc3Cl)cc21 [Compound 26, 6-(5-chloro-2-(((1S,3R,4S,5R)-4-hydroxy-6,8-dioxabicyclo[3.2.1]octan-3-yl)amino)pyrimidin-4-yl)-4-fluoro-2-(2-hydroxypropan-2-yl)-1-isopropyl-1H-indole-3-carbonitrile]
40 to 150 | 120 to 450 | CC(C)n1c([C@H]2CCOC2)nc2c(F)cc(-c3nc(N[C@@H]4C[C@H]5CO[C@H](O5)[C@H]4O)ncc3Cl)cc21 [Compound 267, (1S,3R,4S,5R)-3-((5-chloro-4-(4-fluoro-1-isopropyl-2-((R)-tetrahydrofuran-3-yl)-1H-benzo[d]imidazol-6-yl)pyrimidin-2-yl)amino)-6,8-dioxabicyclo[3.2.1]octan-4-ol]
150 to 1000 | 450 to 3000 | O[C@@H]1[C@@H]2OC[C@H](C[C@H]1Nc1ncc(Cl)c(-c3cc(F)c4ncc(CN5CCOCC5)cc4c3)n1)O2 [Compound 261, (1S,3R,4S,5R)-3-((5-chloro-4-(8-fluoro-3-(morpholinomethyl)quinolin-6-yl)pyrimidin-2-yl)amino)-6,8-dioxabicyclo[3.2.1]octan-4-ol]
150 to 1000 | > 3000 | Cc1c(CN2C[C@H](C)OC2=O)n(C(C)C)c2cc(-c3nc(N[C@@H]4C[C@H]5CO[C@H](O5)[C@H]4O)ncc3F)ccc2c1=O [Compound 212, (S)-3-((7-(5-fluoro-2-(((1S,3R,4S,5R)-4-hydroxy-6,8-dioxabicyclo[3.2.1]octan-3-yl)amino)pyrimidin-4-yl)-1-isopropyl-3-methyl-4-oxo-1,4-dihydroquinolin-2-yl)methyl)-5-methyloxazolidin-2-one]
40 to 150 | 450 to 3000 | Cc1c(-c2nc(N[C@@H]3C[C@H]4CO[C@H](O4)[C@H]3O)ncc2Cl)sc2c(C(C)C)cn(C(F)F)c(=O)c12 [Compound 231, 2-(5-chloro-2-(((1S,3R,4S,5R)-4-hydroxy-6,8-dioxabicyclo[3.2.1]octan-3-yl)amino)pyrimidin-4-yl)-5-(difluoromethyl)-7-isopropyl-3-methylthieno[3,2-c]pyridin-4(5H)-one]
> 1000 | > 3000 | Cc1c(C(=O)N2CCOCC2)n(C(C)C)c2cc(-c3nc(N[C@@H]4C[C@H]5CO[C@H](O5)[C@H]4O)ncc3Cl)ccc2c1=O [Compound 214, 7-(5-chloro-2-(((1S,3R,4S,5R)-4-hydroxy-6,8-dioxabicyclo[3.2.1]octan-3-yl)amino)pyrimidin-4-yl)-1-isopropyl-3-methyl-2-(morpholine-4-carbonyl)quinolin-4(1H)-one]
150 to 1000 | 450 to 3000 | CCCc1cn(C)c(=O)c2ccc(-c3nc(N[C@@H]4C[C@H]5CO[C@H](O5)[C@H]4O)ncc3Cl)cc12 [Compound 294, 6-(5-chloro-2-(((1S,3R,4S,5R)-4-hydroxy-6,8-dioxabicyclo[3.2.1]octan-3-yl)amino)pyrimidin-4-yl)-2-methyl-4-propylisoquinolin-1(2H)-one]
> 1000 | > 3000 | Cc1c(C(=O)N2[C@@H](C)COC[C@@H]2C)n(C(C)C)c2cc(-c3nc(N[C@@H]4C[C@H]5CO[C@H](O5)[C@H]4O)ncc3Cl)ccc2c1=O [Compound 213, 7-(5-chloro-2-(((1S,3R,4S,5R)-4-hydroxy-6,8-dioxabicyclo[3.2.1]octan-3-yl)amino)pyrimidin-4-yl)-2-((3S,5S)-3,5-dimethylmorpholine-4-carbonyl)-1-isopropyl-3-methylquinolin-4(1H)-one]
150 to 1000 | 120 to 450 | CC(C)n1c([C@@H]2CCC(F)(F)C2)nc2c(F)cc(-c3nc(N[C@@H]4C[C@H]5CO[C@H](O5)[C@H]4O)ncc3Cl)cc21 [Compound 5, (1S,3R,4S,5R)-3-((5-chloro-4-(2-((R)-3,3-difluorocyclopentyl)-4-fluoro-1-isopropyl-1H-benzo[d]imidazol-6-yl)pyrimidin-2-yl)amino)-6,8-dioxabicyclo[3.2.1]octan-4-ol]
150 to 1000 | 450 to 3000 | Cc1c(-c2nc(N[C@@H]3C[C@H]4CO[C@H](O4)[C@H]3O)ncc2F)sc2cc(CN3CCOCC3)n(C)c(=O)c12 [Compound 232, 2-(5-fluoro-2-(((1S,3R,4S,5R)-4-hydroxy-6,8-dioxabicyclo[3.2.1]octan-3-yl)amino)pyrimidin-4-yl)-3,5-dimethyl-6-(morpholinomethyl)thieno[3,2-c]pyridin-4(5H)-one]
40 to 150 | 120 to 450 | CC(C)n1c(CN2[C@@H](C)COC[C@@H]2C)cc(=O)c2ccc(-c3nc(N[C@@H]4C[C@H]5CO[C@H](O5)[C@H]4O)ncc3F)cc21 [Compound 209, 2-(((3S,5S)-3,5-dimethylmorpholino)methyl)-7-(5-fluoro-2-(((1S,3R,4S,5R)-4-hydroxy-6,8-dioxabicyclo[3.2.1]octan-3-yl)amino)pyrimidin-4-yl)-1-isopropylquinolin-4(1H)-one]
40 to 150 | 450 to 3000 | CC(C)c1cc2cc(-c3nc(N[C@@H]4C[C@H]5CO[C@H](O5)[C@H]4O)ncc3Cl)ccc2c(=O)n1C [Compound 237, 6-(5-chloro-2-(((1S,3R,4S,5R)-4-hydroxy-6,8-dioxabicyclo[3.2.1]octan-3-yl)amino)pyrimidin-4-yl)-3-isopropyl-2-methylisoquinolin-1(2H)-one]
– | ≤ 120 | [2H][C@H]1[C@@H](Nc2ncc(Cl)c(-c3cc(F)c4nc(C(C)(C)O)n(C(C)C)c4c3)n2)[C@H](O)[C@@H]2OC[C@H]1O2 [Compound 2, (1S,2S,3R,4S,5R)-3-((5-chloro-4-(4-fluoro-2-(2-hydroxypropan-2-yl)-1-isopropyl-1H-benzo[d]imidazol-6-yl)pyrimidin-2-yl)amino)-6,8-dioxabicyclo[3.2.1]octan-2-d-4-ol]
